“And” between values parts separate entries of the source, which are not always exact repeats. Equal entries are not always repeated. Where two headings read alike, the source gives them in different places.
Key:
VeroE6/TMPRSS2 cells = assay: Cell viability by MTT assay; conditions: up to 15 μM
in vitro = conditions: African green monkey
SARS-CoV-2 [1] = assay: SARS-CoV-2 infection assay, viral RNA in culture supernatant by real-time RT-PCR; type: cell-based, SARS-CoV-2 Wk-521 strain; conditions: for IC90: Severe acute respiratory syndrome coronavirus 2, read-out: IC90 (90% maximal inhibitory concentration); for IC90 / IC50: viral RNA in culture supernatant, VeroE6/TMPRSS2 cells; for IC50: Severe acute respiratory syndrome coronavirus 2, read-out: IC50 (50% maximal inhibitory concentration); for effect on viral RNA level (in words): semi-synthetic oxysterols, up to 15 μM; for effect of pathway inhibitors on viral RNA (in words) / reduction of viral replication: 10 μM; for effect on viral RNA (in words) / reduction of the production of viral RNA as compared to control: concentrations up to 30 μM; for reduction of the production of viral RNA as compared to control: natural oxysterols; for reduction of viral RNA production: 15 μM
SARS-CoV-2 [2] = assay: Viral N protein by indirect immunofluorescence; type: cell-based, SARS-CoV-2 Wk-521 strain; conditions: 10 μM RDV, 30 μM cholesterol, 30 μM 7-KC, 10 μM Oxy133, 10 μM Oxy210
SARS-CoV-2 [3] = assay: Virus-induced cytopathic effect (CPE) viewed under a microscope; type: cell-based, SARS-CoV-2 Wk-521 strain; conditions: 48 h post-inoculation; 10 μM RDV, 30 μM cholesterol, 30 μM 7-KC, 10 μM Oxy133, 10 μM Oxy210
Hh signaling [4] = assay: Hedgehog activity, Gli1 mRNA in NIH3T3 cells; type: cell-based; conditions: 10 μM, CAPAN-1 conditioned medium containing Shh
Protocol: (§1) Scale bar, 100 μm. (B) Viral N protein in the cells was detected by immunofluorescence analysis as described in Figure 1C. Scale bar, 50 μm. (C) Dose-response curves for viral RNA upon treatment with oxysterol derivatives as indicated. The secreted viral RNA in the culture supernatant at 24 h post-inoculation was quantified by real-time RT-PCR and plotted against compound concentration. The chemical structures of oxysterols are also shown above the graphs. (D) Viability of cells treated with the compounds was quantified using an MTT assay. (E,F) Inhibitory effects toward transforming growth factor β (TGFβ) and hedgehog (Hh) signaling. […] Cellular mRNAs were extracted to quantify a TGFβ-downstream gene, connective tissue growth factor (CTGF) (E), a Hh target gene, Gli1 (F), and Oaz1 for normalization of CTGF and Gli1 (E,F).
(§2) TGFβ activity was examined with NIH3T3 cells precultured with DMEM containing 0.1% bovine calf serum (BCS) overnight. NIH3T3 cells were pretreated with the compounds for 2 h and then stimulated with TGFβ1 (20 ng/mL) in the presence or absence of compounds. After 48 h, RNA was extracted from the cells and analyzed for quantifying the mRNA for a TGFβ target gene, connective tissue growth factor (CTGF), and Oaz1 for normalization. […] Cellular RNA was extracted and analyzed for the expression of a Hh target gene, Gli1, and normalized to Oaz1 expression.

TGFβ signaling [5] = assay: TGFβ activity, CTGF mRNA in NIH3T3 cells; type: cell-based; conditions: 10 μM, NIH3T3 cells stimulated with 20 ng/mL TGFβ
Protocol: as §1, §2

[6] = Cell viability by MTT assay; conditions: African green monkey, VeroE6 cells stably overexpressing TMPRSS2
SARS-CoV-2 [7] = assay: Time of addition assay (whole life cycle, entry, post-entry); type: cell-based, SARS-CoV-2 Wk-521 strain; conditions: 10 μM Oxy210, 10 μM Oxy133; for viral RNA, compound present post-entry (in words): 15 μM RDV, added 2 h post-inoculation for 21 h
hepatitis C virus (HCV) = assay: HCV replication assay, luciferase in LucNeo#2 replicon cells; type: cell-based, HCV NN strain (genotype-1b); conditions: 10 μM Oxy210, 1 μM sofosbuvir, 48 h
Protocol: N, nucleus; M, mitochondria; *, double-membrane vesicle.
HCV replication activity was measured using LucNeo#2 cells, carrying a subgenomic replicon RNA for an HCV NN strain (genotype-1b) and the luciferase gene driven by the HCV replication. LucNeo#2 cells were treated with the compounds indicated in Figure 3C for 48 h, and the luciferase activity was measured with Luciferase Assay System kit (Promega, Madison, WI, USA).

TGFβ signaling [8] = conditions: fibroblastic cells and tumor cells ref 16; cited from earlier work
Hh signaling [9] = conditions: fibroblastic cells and tumor cells ref 16; cited from earlier work
SARS-CoV-2 [10] = assay: Electron microscopy of double-membrane vesicle formation in infected cells; conditions: 10 μM, VeroE6/TMPRSS2 cells, MOI 1, 7 h
[11] = Pharmacokinetics in mice, single oral gavage dose; type: in vivo, balb/c mice; conditions: single oral dose 200 mg/kg; for Cmax: 200 mg/kg, read-out: Cmax (peak plasma concentration)

## C[C@]12CC[C@H](O)C[C@@H]1CC[C@@H]1[C@@H]2CC[C@@]2(C)[C@H]1CC[C@@H]2[C@](C)(O)CCc1ccc(F)cc1 [Oxy186]
VeroE6/TMPRSS2 cells
  cytotoxicity / cell viability (in words): No significant cytotoxicity
In vitro
  CC50: > 15 µM
SARS-CoV-2 [1]; 12 μM, 24 h post-inoculation
  maximum reduction in viral RNA as compared to control: 83%
SARS-CoV-2 [1]; 24 h post-inoculation
  IC90: > 15 µM
  IC50: 7.4 µM
  effect on viral RNA level (in words): reduced viral RNA level in a dose-dependent manner

## NC(=O)c1ccc(-c2nc(-c3ccc4c(c3)OCO4)c(-c3ccccn3)[nH]2)cc1 [SB431542, reference compound]
SARS-CoV-2 [1]; 24 h post-inoculation
  effect of pathway inhibitors on viral RNA (in words): did not significantly inhibit the production of viral RNA

## CC(C)CC[C@H](O)[C@@H](C)[C@H]1CC[C@H]2[C@@H]3CC=C4C[C@@H](O)CC[C@]4(C)[C@H]3CC[C@]12C [22(S)-OHC, 22(S)-hydroxycholesterol]
In vitro
  CC50: > 30 µM
SARS-CoV-2 [1]; 24 h post-inoculation
  IC90: > 30 µM
  IC50: > 30 µM
  effect on viral RNA (in words): did not show apparent reductions in viral RNA

## CC(C)CCC[C@@H](C)[C@H]1CC[C@H]2[C@@H]3C(=O)C=C4C[C@@H](O)CC[C@]4(C)[C@H]3CC[C@]12C [7-KC, 7-ketocholesterol]
SARS-CoV-2 [2]
  effect on virus propagation / spread of infection, N protein (in words): reduced
In vitro
  CC50: > 30 µM
SARS-CoV-2 [1]; 24 h post-inoculation
  IC90: > 30 µM
  IC50: 14.5 µM
  reduction of the production of viral RNA as compared to control: 80%–86%
SARS-CoV-2 [3]
  effect on SARS-CoV-2-induced CPE (in words): reduced the SARS-CoV-2-induced CPE

## CCCCCC[C@@](C)(O)[C@H]1CC[C@H]2[C@@H]3C[C@H](O)[C@H]4C[C@@H](O)CC[C@]4(C)[C@H]3CC[C@@]21C [Oxy133]
In vitro
  CC50: > 15 µM
SARS-CoV-2 [1]; 24 h post-inoculation
  IC90: > 15 µM
  IC50: > 15 µM
  effect on viral RNA level (in words): did not show antiviral activity up to 15 μM

## CC(C)CCC[C@@H](C)[C@H]1CC[C@H]2[C@@H]3CC=C4[C@@H](O)[C@@H](O)CC[C@]4(C)[C@H]3CC[C@]12C [4-beta-OHC, 4beta-hydroxycholesterol]
In vitro
  CC50: > 30 µM
SARS-CoV-2 [1]; 24 h post-inoculation
  IC90: > 30 µM
  IC50: > 30 µM
  effect on viral RNA (in words): did not show apparent reductions in viral RNA

## CC[C@@](O)(CCc1cccnc1)[C@H]1CC[C@H]2[C@@H]3CC[C@H]4C[C@@H](O)CC[C@]4(C)[C@H]3CC[C@]12C [Oxy232]
Hh signaling [4]
  inhibition of Hh signaling (Gli1 mRNA, in words): retains inhibitory activity toward Hh signaling
VeroE6/TMPRSS2 cells
  cytotoxicity / cell viability (in words): slightly reduced cell viability when used at concentrations above 10 μM
In vitro
  CC50: > 15 µM
SARS-CoV-2 [1]
  reduction of viral replication: more than 90%
SARS-CoV-2 [1]; 24 h post-inoculation
  reduction of viral RNA production: 99.9% and > 99%
  IC90: 7.8 µM
  IC50: 5.4 µM
  effect on viral RNA level (in words): reduced viral RNA level in a dose-dependent manner
TGFβ signaling [5]
  inhibition of TGFβ signaling (CTGF mRNA, in words): devoid of significant TGFβ inhibitory properties

## CCC(CC)COC(=O)[C@H](C)N[P@](=O)(OC[C@H]1O[C@@](C#N)(c2ccc3c(N)ncnn23)[C@H](O)[C@@H]1O)Oc1ccccc1 [RDV, remdesivir, reference compound]
[6]
  CC50 at 24 h: > 10 µM
SARS-CoV-2 [2]
  effect on virus propagation / spread of infection, N protein (in words): blocked
SARS-CoV-2 [1]; 24 h post-inoculation
  IC90: 2.5 µM
  IC50: 1.5 µM
SARS-CoV-2 [7]
  viral RNA, compound present post-entry (in words): remarkable inhibition
SARS-CoV-2 [3]
  effect on SARS-CoV-2-induced CPE (in words): blocked the virus-induced CPE

## CC(C)CCC[C@@H](C)[C@H]1CC[C@H]2[C@@H]3CC=C4C[C@@H](O)CC[C@]4(C)[C@H]3CC[C@]12C [Cholesterol, reference compound]
SARS-CoV-2 [2]
  effect on virus propagation / spread of infection, N protein (in words): but not cholesterol, reduced
In vitro
  CC50: > 30 µM
SARS-CoV-2 [1]; 24 h post-inoculation
  IC90: > 30 µM
  IC50: > 30 µM
  effect on viral RNA (in words): did not show apparent reductions in viral RNA
SARS-CoV-2 [3]
  effect on SARS-CoV-2-induced CPE (in words): but not cholesterol, reduced the SARS-CoV-2-induced CPE

## CC(C)OC(=O)[C@H](C)N[P@](=O)(OC[C@H]1O[C@@H](n2ccc(=O)[nH]c2=O)[C@](C)(F)[C@@H]1O)Oc1ccccc1 [sofosbuvir, reference compound]
Hepatitis C virus (HCV)
  HCV replication, luciferase activity (in words): positive control

## CC(C)CC[C@@H](O)[C@@H](C)[C@H]1CC[C@H]2[C@@H]3CC=C4C[C@@H](O)CC[C@]4(C)[C@H]3CC[C@]12C [22(R)-OHC, 22(R)-hydroxycholesterol]
In vitro
  CC50: > 30 µM
SARS-CoV-2 [1]; 24 h post-inoculation
  IC90: > 30 µM
  IC50: 13.2 µM
  reduction of the production of viral RNA as compared to control: 80%–86%

## CC(C)[C@@H](O)CC[C@@H](C)[C@H]1CC[C@H]2[C@@H]3CC=C4C[C@@H](O)CC[C@]4(C)[C@H]3CC[C@]12C [24(S)-OHC, 24(S)-hydroxycholesterol]
In vitro
  CC50: > 30 µM
SARS-CoV-2 [1]; 24 h post-inoculation
  IC90: > 30 µM
  IC50: 1.3 µM
  reduction of the production of viral RNA as compared to control: 80%–86%

## C[C@@H](CO)CCC[C@@H](C)[C@H]1CC[C@H]2[C@@H]3CC=C4C[C@@H](O)CC[C@]4(C)[C@H]3CC[C@]12C [27-OHC, 27-hydroxycholesterol]
In vitro
  CC50: > 30 µM
SARS-CoV-2 [1]; 24 h post-inoculation
  IC90: > 30 µM
  IC50: 3.5 µM
  reduction of the production of viral RNA as compared to control: 80%–86%

## C[C@]12CC[C@H]3[C@@H](CC=C4C[C@@H](O)CC[C@@]43C)[C@@H]1CC[C@@H]2[C@](C)(O)CCc1cccnc1 [Oxy210]
TGFβ signaling [8]
  inhibition of TGFβ signaling (in words): inhibited
VeroE6/TMPRSS2 cells
  cytotoxicity / cell viability (in words): No significant cytotoxicity
SARS-CoV-2 [2]
  effect on virus propagation / spread of infection, N protein (in words): blocked
Hh signaling [9]
  inhibition of Hh signaling (in words): inhibited
SARS-CoV-2 [10]
  DMV formation in SARS-CoV-2-infected cells (in words): remarkably reduced the DMV formation
In vitro
  CC50: > 15 µM
SARS-CoV-2 [1]
  reduction of viral replication: more than 90%
SARS-CoV-2 [1]; 24 h post-inoculation
  reduction of viral RNA production: 99.4% and > 99%
  IC90: 8.6 µM
  IC50: 5.5 µM
  effect on viral RNA level (in words): reduced viral RNA level in a dose-dependent manner
SARS-CoV-2 [7]; 24 h
  viral RNA, compound present in the whole life cycle (in words): clearly reduced viral RNA levels
SARS-CoV-2 [7]
  viral RNA, compound present post-entry (in words): clearly reduced viral RNA levels
SARS-CoV-2 [3]
  effect on SARS-CoV-2-induced CPE (in words): blocked
[11]; balb/c, mouse, in vivo, po, plasma
  Cmax: 8160 ng/mL and 19.4 µM
[11]; balb/c, mouse, in vivo, plasma
  MRT: 3.5 h
  Tmax: 1 h
[11]; balb/c, mouse, in vivo, plasma, read-out: AUC (AUCinf)
  AUC(0-inf): 29300 ng·h/mL
[11]
  tolerability (in words): well tolerated
[11]; plasma
  Cmax: ~19 µM
Hepatitis C virus (HCV)
  HCV replication, luciferase activity (in words): reduced the DMV-dependent RNA replication of HCV

## CS(=O)(=O)c1ccc(C(=O)Nc2ccc(Cl)c(-c3ccccn3)c2)c(Cl)c1 [GDC0449, reference compound]
SARS-CoV-2 [1]; 24 h post-inoculation
  effect of pathway inhibitors on viral RNA (in words): did not decrease the viral RNA levels
